Like-named read-outs stand apart in the source and are kept apart here.
Key:
[1] = molecular target: T1, interaction of ICAM-1 with the Leukointegrin CD18/CD11a (LFA-1) (Homo sapiens, UniProt P05107+P20701); assay: Assay to determine inhibition of LFA-1 binding to ICAM-1 (immunopurified LFA-1 on plate-bound sICAM-1, ELISA readout)
T1 construct: endogenous in cells; sICAM-1: made in house, secreted from transfected CHO DUX cells

[2] = tested on: cell bound form of LFA-1 (CD18, CD11a) with ICAM-1, SKW3 cells; assay: Inhibition of SKW3 cell binding to ICAM-1 (PMA-stimulated); assay type: cell-based, human; conditions: read-out: Assay to Detect SKW3 Cells Binding to ICAM IC50
Summary of the method: (§1)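 Plates coated with sICAM-1 (40 μg/mL) or fibronectin (100 μg/mL) for 1 h; SKW3 cells in RPMI/15% FBS activated with PMA (50 μg/mL final) added with compound, 2 h at 37° C. Unbound cells washed off; value is concentration (μM) giving 50% binding inhibition.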

[3] = tested on: cell bound fibronectin receptor (VLA4) with fibronectin, SKW3 cells; assay: Inhibition of SKW3 cell binding to fibronectin (selectivity counter-assay); assay type: cell-based, human; conditions: for IC50: Homo sapiens, read-out: Assay to Detect SKW3 Cells Binding to FIBRONECTIN IC50
Summary of the method: as §1

[4] = tested on: LFA-1 dependent aggregation of JY cells; assay: JY cell homotypic aggregation assay (PMA-stimulated); assay type: cell-based, human
Text: This aggregation can be enhanced by the addition of phorbol esters. […] Thus, the extent of LFA-1-dependent binding may be determined by assessing the extent of spontaneous or phorbol ester-dependent aggregate formation.
An agent which interferes with LFA-1 -dependent aggregation can be identified through the use of an assay capable of determining whether the agent interferes with either spontaneous, or phorbol ester-dependent aggregation of Epstein-Barr virus transformed cells. It is preferable to employ cells of the JY cell line (Terhost, L; et aL, Proc. Natl. Acad. Sci. USA, 1976, 73, 910) for the homotypic aggregation assay. This assay, capable of measuring LFA-1 dependent aggregation, may be employed to identify agents which act as antagonists to the LFA-1 dependent aggregation. Such agents may act by impairing the ability of either LFA-1 or ICAM-1 to mediate aggregation. Thus, agents may be examined to directly determine if they are antagonists of LFA-1 aggregation.
Description of Assay Protocol:
JY cells are cultured in RPMI 1640 culture medium supplemented with 10% fetal calf serum and 50 μg/mL gentamycin. The cells are cultured at 37° C. in an atmosphere of 5% CO2 at a relative humidity of 95%. JY cells used in this assay are washed two times with RPMI 1640 medium containing 5 mM HEPES buffer and resuspended to a concentration of 2·10^6 cells/mL. Added to flat-bottomed, 96-well microtiter plates are 50 μL of test compound diluted in complete medium, 50 μL of complete medium with or without purified monoclonal antibodies (negative and positive controls for inhibition, respectively), 50 μL of complete medium containing 200 ng/mL of the phorbol ester phorbol myristate acetate (PMA) and 100 μL of cells at a concentration of 2·10^6 cells/mL in complete medium. This yields a final concentration of […] PMA and 2·10^5 cells/well. Cells are allowed to settle spontaneously, and the degree of aggregation is scored at various time points. […] This procedure has been described by Rothlein, R. R.; et al., J. Exp. Med. 1986, 163, 1132-1149. This paper also reported that antibody to LFA-1 is capable of inhibiting the formation of aggregates.
Data are reported as the concentration or concentration range (in μM) at which 50% of binding is inhibited.

[5] = values marked e approximated from incomplete dose-response curve
[6] = Homo sapiens, SKW3, values marked c: no inhibition observed up to highest dose
[7] = values marked c: no inhibition observed up to highest dose
[8] = No inh = no inhibition observed up to highest dose, exact quantification not always possible due to intrinsic toxicity
[9] = SKW3, values marked c: no inhibition observed up to highest dose
[10] = SKW3, No inh = no inhibition observed up to highest dose, exact quantification not always possible due to intrinsic toxicity

T1 sequence (P20701 26-1170): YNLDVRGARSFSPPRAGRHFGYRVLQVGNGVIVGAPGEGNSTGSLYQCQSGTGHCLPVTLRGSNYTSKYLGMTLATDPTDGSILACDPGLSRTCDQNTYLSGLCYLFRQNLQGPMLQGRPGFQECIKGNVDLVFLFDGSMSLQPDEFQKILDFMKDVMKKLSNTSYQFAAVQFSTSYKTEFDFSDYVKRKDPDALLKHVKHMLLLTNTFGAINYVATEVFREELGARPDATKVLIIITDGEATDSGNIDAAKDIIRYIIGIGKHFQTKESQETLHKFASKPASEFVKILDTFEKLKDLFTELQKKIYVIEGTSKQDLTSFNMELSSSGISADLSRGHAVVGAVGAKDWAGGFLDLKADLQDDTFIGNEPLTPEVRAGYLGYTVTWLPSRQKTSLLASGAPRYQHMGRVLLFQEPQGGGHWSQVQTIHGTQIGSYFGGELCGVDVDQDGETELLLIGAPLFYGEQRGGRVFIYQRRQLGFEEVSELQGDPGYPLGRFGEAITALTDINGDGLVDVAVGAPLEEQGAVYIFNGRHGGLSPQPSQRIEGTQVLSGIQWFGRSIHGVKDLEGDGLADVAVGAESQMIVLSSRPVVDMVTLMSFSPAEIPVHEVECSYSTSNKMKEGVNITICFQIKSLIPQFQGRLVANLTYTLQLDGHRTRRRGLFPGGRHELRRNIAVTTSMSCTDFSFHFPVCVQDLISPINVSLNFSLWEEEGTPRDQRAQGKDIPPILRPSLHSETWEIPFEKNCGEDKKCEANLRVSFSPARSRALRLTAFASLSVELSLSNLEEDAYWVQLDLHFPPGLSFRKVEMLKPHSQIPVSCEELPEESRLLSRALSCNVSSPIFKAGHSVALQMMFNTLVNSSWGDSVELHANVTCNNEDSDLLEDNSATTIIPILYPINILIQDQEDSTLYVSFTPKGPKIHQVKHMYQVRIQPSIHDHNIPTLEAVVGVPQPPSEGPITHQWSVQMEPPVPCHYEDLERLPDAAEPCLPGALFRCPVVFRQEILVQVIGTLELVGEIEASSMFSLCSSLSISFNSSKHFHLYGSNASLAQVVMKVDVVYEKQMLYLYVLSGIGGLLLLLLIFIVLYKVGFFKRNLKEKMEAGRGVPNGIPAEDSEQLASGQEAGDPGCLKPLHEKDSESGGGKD
T1 sequence (P05107 23-769): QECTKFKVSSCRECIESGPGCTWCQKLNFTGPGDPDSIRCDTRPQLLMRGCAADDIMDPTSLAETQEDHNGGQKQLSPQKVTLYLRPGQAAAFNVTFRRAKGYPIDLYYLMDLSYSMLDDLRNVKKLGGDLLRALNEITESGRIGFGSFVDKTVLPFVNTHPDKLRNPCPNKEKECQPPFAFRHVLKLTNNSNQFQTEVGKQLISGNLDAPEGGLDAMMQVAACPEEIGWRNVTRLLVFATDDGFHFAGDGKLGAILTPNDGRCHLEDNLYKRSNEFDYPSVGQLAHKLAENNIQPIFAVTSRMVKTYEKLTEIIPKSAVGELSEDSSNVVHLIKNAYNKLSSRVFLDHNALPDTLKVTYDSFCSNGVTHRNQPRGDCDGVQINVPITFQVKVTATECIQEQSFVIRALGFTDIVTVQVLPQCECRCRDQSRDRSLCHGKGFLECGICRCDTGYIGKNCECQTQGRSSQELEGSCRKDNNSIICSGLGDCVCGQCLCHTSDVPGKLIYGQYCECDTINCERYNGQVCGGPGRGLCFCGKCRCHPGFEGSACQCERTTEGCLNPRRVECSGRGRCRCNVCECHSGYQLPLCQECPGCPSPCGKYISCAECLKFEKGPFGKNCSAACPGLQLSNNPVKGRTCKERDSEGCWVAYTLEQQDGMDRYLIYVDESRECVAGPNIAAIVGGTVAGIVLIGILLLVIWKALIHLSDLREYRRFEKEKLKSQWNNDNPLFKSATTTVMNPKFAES

| SMILES | Kd [1, 5] | IC50 [2, 6] | Assay to Detect SKW3 Cells Binding to FIBRONECTIN IC50 [3, 7] | IC50 ([4]; Homo sapiens) | Cellular Toxicity Assay MTT LD50 (SKW3 cells) | Kd [1] | IC50 ([2]; Homo sapiens, SKW3) | Assay to Detect SKW3 Cells Binding to FIBRONECTIN IC50 [3, 8] | IC50 [2, 7] | IC50 [3, 9] | IC50 [3, 10] | IC50 [4] |
| --- | --- | --- | --- | --- | --- | --- | --- | --- | --- | --- | --- | --- |
| CC(C)N1C(=O)N(c2cc(Cl)cc(Cl)c2)C(=O)C1Cc1ccc(Br)cc1 (stereo not drawn) [Example 34] | 130 nM | 6000 nM | No inh^c | 1800 nM | 200 to 400 µM |  |  |  |  |  |  |  |
| C[C@@]1(Cc2ccc(Br)cc2)C(=O)N(c2cc(Cl)cc(Cl)c2)C(=O)N1CCCCCC#N [Example 257] |  |  |  | 600 nM | 300 µM | 80 nM | 1600 nM | No inh^c |  |  |  |  |
| CC(=O)OCCN1C(=O)N(c2cc(Cl)cc(Cl)c2)C(=O)[C@@]1(C)Cc1ccc(Br)cc1 [Example 260] |  |  |  | 1100 nM | 200 to 400 µM | 70 nM | 19000 to 38000 nM | No inh^c |  |  |  |  |
| CN1C(=O)N(c2cc(Cl)cc(Cl)c2)C(=O)C1(C)Cc1cc(Br)cc(Br)c1 (stereo not drawn) [Example 164] | 280 nM | > 100000 nM | No inh^c | 25000 nM | 100 to 200 µM |  |  |  |  |  |  |  |
| C[C@@]1(Cc2ccc(Br)cc2)C(=O)N(c2cc(Cl)cc(Cl)c2)C(=O)N1CCCP(=O)(O)O [Example 223] |  |  |  | 200 nM | 200 to 400 µM | 150 nM | 2000 to 4000 nM | No inh^c |  |  |  |  |
| C[C@@]1(Cc2ccc(Br)cc2)C(=O)N(c2cc(Cl)cc(Cl)c2)C(=O)N1CCCCS(=O)(=O)O [Example 250] |  |  |  | 100 nM | 100 to 200 µM | 40 nM | < 1000 nM | No inh^c |  |  |  |  |
| CC1(Cc2c[nH]c3ccccc23)NC(=O)N(c2cc(Cl)cc(Cl)c2)C1=O (stereo not drawn) [Example 23] | 770 nM |  |  | 13000 nM | 50 to 100 µM |  |  |  | 25000 to 50000 nM | > 100000 nM |  |  |
| Cc1cc(Br)cc(C)c1C[C@]1(C)C(=O)N(c2cc(Cl)cc(Cl)c2)C(=O)N1C [Example 122] | 130 nM | 12000 to 25000 nM | No inh^c | 1800 nM | 200 to 400 µM |  |  |  |  |  |  |  |
| C[C@@]1(Cc2ccc(Br)cc2)C(=O)N(c2cc(Cl)cc(Cl)c2)C(=O)N1CCCN [Example 240] |  |  |  | 6300 nM | 11 to 23 µM | 110 nM | 1000 to 3000 nM |  |  |  | 13400 nM |  |
| CCCC1(Cc2ccc(Br)cc2)C(=O)N(c2cc(Cl)cc(Cl)c2)C(=O)N1C (stereo not drawn) [Example 173] | 170 nM | 4800 nM | No inh^c | 2200 nM | 200 to 400 µM |  |  |  |  |  |  |  |
| C[C@@]1(Cc2ccc(Br)cc2)C(=O)N(c2cc(Cl)cc(Cl)c2)C(=O)N1Cc1ccc(C(=N)N)cc1 [Example 242] |  |  |  | 2800 nM | 16 to 32 µM | 400 nM | 10000 to 25000 nM | No inh^c |  |  |  |  |
| CC(C)N1C(=O)N(c2cc(Cl)cc(Cl)c2)C(=O)[C@]1(C)Cc1ccc(Br)cc1 [Example 274] |  |  |  | 3000 nM | 200 to 300 µM | 140 nM | 25000 to 50000 nM |  |  |  | > 100000 nM |  |
| C[C@]1(Cc2ccc(Br)cc2)NC(=O)N(c2cc(C(F)(F)F)cc(C(F)(F)F)c2)C1=O [Example 35] | 100 nM | 5000 to 10000 nM | No inh^c | 800 nM | 38 to 46 µM |  |  |  |  |  |  |  |
| CN1C(=O)N(c2cc(Cl)c(Cl)c(Cl)c2)C(=O)C1(C)Cc1ccc(Br)cc1 (stereo not drawn) [Example 159] | 110 nM | 10000 to 20000 nM | No inh^c | 2000 nM | 50 to 100 µM |  |  |  |  |  |  |  |
| CN1C(=O)N(c2cc(Cl)cc(Cl)c2)C(=O)[C@@]1(C)Cc1ccc(-c2ccccn2)cc1 [Example 187] | 290 nM | 600 nM | No inh^c | 600 nM | 171 µM |  |  |  |  |  |  |  |
| CN1C(=O)N(c2cc(Cl)c(F)c(Cl)c2)C(=O)[C@@]1(C)Cc1ccc(Br)cc1 [Example 124] | 30 nM | 1500 nM | No inh^c | 100 nM | 100 to 200 µM |  |  |  |  |  |  |  |
| C[C@@]1(Cc2ccc(Br)cc2)C(=O)N(c2cc(Cl)cc(Cl)c2)C(=O)N1CCCS(=O)(=O)O [Example 249] |  |  |  | 400 nM | 200 to 400 µM | 160 nM | < 1000 nM | No inh^c |  |  |  |  |
| CN1C(=O)N(c2cc(Cl)cc(Cl)c2)C(=O)C1(C)Cc1ccc(Cl)cc1 (stereo not drawn) [Example 154] | 94 nM | 5000 to 10000 nM | No inh^c | 400 nM | 200 µM |  |  |  |  |  |  |  |
| C[C@@]1(Cc2ccc(Br)cc2)C(=O)N(c2cc(Cl)cc(Cl)c2)C(=O)N1CCCCn1ccnc1 [Example 252] |  |  |  | 300 nM | 17 to 20 µM | 110 nM | 400 to 800 nM | No inh^c |  |  |  |  |
| CC(C)(C)N1C(=O)N(c2cc(Cl)cc(Cl)c2)C(=O)C1(C)Cc1ccc(Br)cc1 (stereo not drawn) [Example 177] | 250 nM | 7000 to 14000 nM | No inh^c | 3700 nM | 155 to 310 µM |  |  |  |  |  |  |  |
| O=C1N[C@H](Cc2ccccc2)C(=O)N1c1cc(Cl)cc(Cl)c1 [Example 15] | 2300 nM | 31000 to 63000 nM | No Inh^c | 25000 to 50000 nM | 125 to 250 µM |  |  |  |  |  |  |  |
| CC(C)N1C(=O)N(c2cc(Cl)cc(Cl)c2)C(=O)C1(C)Cc1ccc(Br)cc1 (stereo not drawn) [Example 141] | 220 nM | 15000 nM |  | 100 nM | 300 µM |  |  |  |  | > 15000 nM |  |  |
| CC(C)N1C(=O)N(c2cc(Cl)cc(Cl)c2)C(=O)[C@@]1(C)Cc1ccc(Br)cc1 [Example 273] |  |  |  | 2000 nM | 150 to 300 µM | 190 nM | 38000 nM |  |  |  | > 75000 nM |  |
| CN1C(=O)N(c2cc(Cl)cc(Cl)c2)C(=O)[C@@]1(C)Cc1cc(Br)cc(Br)c1 [Example 118] | 460 nM | > 100000 nM |  | 3400 nM | 200 to 400 µM |  |  |  |  | > 100000 nM |  |  |
| C[C@@]1(Cc2ccc(Br)cc2)C(=O)N(c2cc(Cl)cc(Cl)c2)C(=O)N1CCCCC#N [Example 256] |  |  |  | 400 nM | 150 to 300 µM | 120 nM | 800 to 2000 nM | No inh^c |  |  |  |  |
| CC1(Cc2ccc(Br)cc2)OC(=O)N(c2cc(Cl)cc(Cl)c2)C1=O (stereo not drawn) [Example 180] | 190 nM | 1500 to 3000 nM | No inh^c | 1300 nM | 200 to 400 µM |  |  |  |  |  |  |  |
| C[C@]1(Cc2ccc(C(=O)c3ccccc3)cc2)NC(=O)N(c2cc(Cl)cc(Cl)c2)C1=O [Example 184] | 370 nM | 800 to 1500 nM | No inh^c |  | 50 to 100 µM |  |  |  |  |  |  | 300 nM |

Source: patent USRE38132E1, “Phenylpyrrolidines, phenylimidazolidines,3-phenyl-1,3-oxizolidines and 3-phenyl-1,3-thiazolidines and their use in the treatment of inflammatory disease” (Boehringer Ingelheim Pharmaceuticals, Inc., priority 1997, dated 2003)
